One test concerns the target FGFR4 (Homo sapiens, UniProt P22455). In words: FGFR4 Kinase Assay - Caliper. In kind it is biochemical. The following applies: 30 μM ATP, separate test occasions listed, read-out: IC50 (inhibition of FGFR4 kinase activity). How it is done: FGFR4 Kinase Assay—Caliper
To determine inhibition of FGFR4 activity, kinase assays were conducted using Caliper technology. FGFR4 enzyme was used (8 μM, Cat. No. PR4380B, Invitrogen). Kinase activity assays were performed in Greiner 384-well low volume plates, with a total reaction volume of 12 μL per well. The final concentration of FGFR4 active kinase in each reaction well was 25 nM. The substrate for each assay was a custom peptide with fluorescent tag (13 amino acids in length, 5FAM-[…]—CONH2) the sequence of which was specific for FGFR4 kinase.
Compounds were serially diluted in 5% (v/v) DMSO, before being added to assay plates. The Enzyme (at 25 nM (final)) and Substrate (at 1.5 μM (final)) were added separately to the compound plates, in reaction buffer (comprising: 100 mM HEPES—pH 7.5, 0.004% Triton, 1 mM DTT (final), 10 mM MnCl2 (final), 30 μM ATP (final)) resulting in a final DMSO concentration in the reaction mix of 0.8%.
Assay plates were incubated at RT for 2 hours, before the reaction was stopped with the addition of buffer (comprising: 100 mM HEPES—pH7.5, 0.033% Brij-35, 0.22% Caliper Coating Reagent #3, 40 mM EDTA, 5% DMSO). Stopped assay plates were then read using the Caliper LabChip™ LC3000 (which uses microfludics to measure a shift in mobility between fluorescent labelled peptide and the FGFR4 kinase—phosphorylated form of this peptide). […]

The target of the next test is T1, FGFR1 IIIc (Homo sapiens, UniProt P11362).
T1 construct: expressed in transfected cells; host or cells: Cos-1
T1 sequence (P11362 22-822): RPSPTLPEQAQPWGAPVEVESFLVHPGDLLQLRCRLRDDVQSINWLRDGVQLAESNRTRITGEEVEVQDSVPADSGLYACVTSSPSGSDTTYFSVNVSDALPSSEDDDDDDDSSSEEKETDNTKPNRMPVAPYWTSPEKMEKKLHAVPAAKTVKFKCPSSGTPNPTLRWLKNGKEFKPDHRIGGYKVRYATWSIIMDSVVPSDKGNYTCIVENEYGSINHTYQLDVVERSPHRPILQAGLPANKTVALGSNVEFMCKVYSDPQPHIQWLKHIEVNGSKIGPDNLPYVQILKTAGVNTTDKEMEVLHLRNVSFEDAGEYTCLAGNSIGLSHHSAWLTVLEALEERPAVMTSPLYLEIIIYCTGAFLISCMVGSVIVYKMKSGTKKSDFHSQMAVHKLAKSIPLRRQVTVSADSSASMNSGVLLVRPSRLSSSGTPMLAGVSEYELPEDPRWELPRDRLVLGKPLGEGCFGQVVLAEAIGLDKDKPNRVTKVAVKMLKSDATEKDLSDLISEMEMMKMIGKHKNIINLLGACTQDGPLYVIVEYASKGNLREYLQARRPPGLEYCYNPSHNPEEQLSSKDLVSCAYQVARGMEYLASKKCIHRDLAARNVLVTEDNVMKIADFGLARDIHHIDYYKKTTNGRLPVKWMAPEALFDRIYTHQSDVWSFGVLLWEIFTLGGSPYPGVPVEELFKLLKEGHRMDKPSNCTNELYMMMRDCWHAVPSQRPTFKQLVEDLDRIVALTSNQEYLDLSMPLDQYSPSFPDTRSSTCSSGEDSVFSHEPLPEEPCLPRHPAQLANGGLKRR
In words: Cell FGFR1 (ECHO): inhibition of transiently expressed FGFR1 IIIc phosphorylation in Cos-1 cells. The following applies: Cos-1 cells transiently expressing FGFR1 IIIc, 1 hour incubation; read-out: IC50 (inhibition of phosphorylated FGFR1). In kind it is cell-based. From the text:
Cell FGFR1 (ECHO)—Cell Based Inhibition of Transiently Expressed FGFR1 IIIc Phosphorylation via use of ECHO Technology (Measured using Phospho-Specific Primary and Fluorescent Secondary Antibodies).
This assay is designed to detect inhibitors of transiently expressed FGFR1 phosphorylation by antibody staining of fixed cells detected using ArrayScan technology.
Cos-1 cells were routinely passaged in DMEM (Gibco BRL, 41966) plus 3% foetal calf serum (FCS), 1% L-glutamine (Gibco BRL, 25030) to a confluence of 80%. To undertake the assay, Cos-1 cells were harvested at 90-95% confluence for cell transfection. For each 96-well plate, 24 μl Lipofectamine 2000 was added to 809 ul OptiMEM and incubated at room temperature for 5 minutes. For each 96 well plate, 20 ug 3′ FLAG tagged FGFR1/pcDNA3.1 (In-house clone15, MSD 4793) was diluted with OptiMEM to a total volume of 833 μl. Equal volumes of DNA and Lipofectamine 2000 were combined (DNA: Lipid=1:1.2 ratio) and incubated at room temperature for 20 minutes.
The harvested Cos-1 cells are counted using a coulter counter and diluted further with 1% FCS/DMEM to 2.5×10^5 cells/ml. For each 96-well, 8.33 ml cells were required. […]
Media was removed from the wells using vacuum aspiration; cells were fixed by adding 50 μl of 100% methanol to each well and incubated at room temperature for 20 minutes. […] The plates were read on an Arrayscan (Cellomics). […]

pIC50: −log10 of the molar value. Where “and” joins values, the source holds several entries; their conditions need not be identical. Equal values may be shown once.

Sequence of FGFR4 (P22455 22-802): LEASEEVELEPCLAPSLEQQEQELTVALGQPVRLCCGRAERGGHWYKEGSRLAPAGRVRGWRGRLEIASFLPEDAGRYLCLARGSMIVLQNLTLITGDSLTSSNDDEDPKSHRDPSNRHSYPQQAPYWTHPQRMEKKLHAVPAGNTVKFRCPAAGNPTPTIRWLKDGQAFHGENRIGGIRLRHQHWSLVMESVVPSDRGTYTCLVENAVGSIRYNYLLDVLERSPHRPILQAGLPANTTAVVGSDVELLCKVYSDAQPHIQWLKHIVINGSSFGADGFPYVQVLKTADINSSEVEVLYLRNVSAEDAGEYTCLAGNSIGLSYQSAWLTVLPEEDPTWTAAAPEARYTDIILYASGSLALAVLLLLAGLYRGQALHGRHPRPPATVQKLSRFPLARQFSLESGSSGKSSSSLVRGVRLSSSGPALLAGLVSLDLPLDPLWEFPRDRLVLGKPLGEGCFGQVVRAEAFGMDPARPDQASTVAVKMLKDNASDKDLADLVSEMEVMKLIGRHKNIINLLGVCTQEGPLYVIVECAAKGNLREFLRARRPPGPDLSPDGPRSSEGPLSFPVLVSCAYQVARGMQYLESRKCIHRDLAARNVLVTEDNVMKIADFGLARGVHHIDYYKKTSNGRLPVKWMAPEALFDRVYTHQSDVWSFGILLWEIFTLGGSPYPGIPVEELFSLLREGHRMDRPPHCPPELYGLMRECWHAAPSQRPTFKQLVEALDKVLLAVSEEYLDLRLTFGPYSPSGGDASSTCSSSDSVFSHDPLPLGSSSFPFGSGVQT

As a reminder, the IC50 is the concentration that inhibits the measured activity by half. The term pIC50 denotes the IC50 on a negative log10 scale, so that one unit is a factor of ten. As for `COc1cc(CCc2cc(NC(=O)c3ccc(N4CCN(C)[C@H](C)C4)cc3)[nH]n2)cc(OC)c1` [Example 1b, (R)—N-(3-(3,5-Dimethoxyphenethyl)-1H-pyrazol-5-yl)-4-(3,4-dimethylpiperazin-1-yl)benzamide], the IC50 on FGFR4 is 22 nM and 16 nM (2×). In addition, the pIC50 on FGFR1 IIIc was > 8.00 and 8.96 and 8.66 and 8.32.

The values above are taken from patent US20090318468A1, “PYRAZOLE COMPOUNDS 436” (AstraZeneca AB, priority 2008, published 2009).
